Results: patent publication US20140303090A1, “Smac Mimetic Therapy” (TETRALOGIC PHARMACEUTICALS CORPORATION, priority 2013, published 2014)
Where two headings read alike, the source gives them in different places.

What was measured:
[1] = molecular target: T1, cIAP1-BUCR (Homo sapiens, UniProt Q13490); assay: cIAP1 auto-ubiquitylation in vitro (Ub transfer by cIAP1-BUCR)
Text: To assess the E3 ligase activity of IAP antagonist-induced cIAP1-BUCR dimers, we monitored cIAP1 auto-ubiquitylation in vitro.

[2] = molecular target: T2, GFP-cIAP1 (Homo sapiens, UniProt Q13490); assay: GFP-cIAP1 degradation assay (loss of GFP signal, flow cytometry); format: cell-based
T2 construct: expressed in transfected cells

[3] = system: Xiap−/− murine BMDMs; assay: IL-1β secretion from LPS-primed XIAP knockout bone marrow-derived macrophages; format: cell-based; settings: 24 h
Experimental: We thus evaluated a selection of Smac-mimetics in both LPS-primed wild-type (WT) and XIAP knockout (Xiap^−/−) murine BMDMs to assess their capacity to induce the secretion of IL-1β following treatment with Smac-mimetic (FIG. 4).
WT and Xiap^−/− BMDMs were primed with LPS±the indicated concentration of Smac-mimetics for 24 h. WT BMDM results are presented as the mean±SEM (n=3 biological independent repeats).

[4] = Tolerability; settings: in vivo
Text: . Binding of IAP antagonists to cIAP1 proteins induces a conformational rearrangement that exposes the RING domain. Once exposed, the RING domain dimerizes and E3 ubiquitin ligase activity is activated. Using a range of assays that evaluated cIAP1 stability; NF-κB activation; cIAP1 oligomeric state; […]. Birinapant-induced loss of cIAPs correlated with inhibition of TNF-mediated NF-κB activation, caspase activation, tumor cell killing, and tumor regression. Birinapant was well-tolerated. […]. […]; (ii.) decreased affinity for XIAP BIR3; (iii.) decreased ability to inhibit XIAP-dependent NOD signaling, despite its activity in an XIAP-dependent caspase-3 activation assay; and, (iv.) decreased pro-inflammatory IL-1β secretion. […]

[5] = molecular target: cIAP1-BUCR dimer (Homo sapiens, UniProt Q13490); assay: Co-immunoprecipitation of differentially-tagged cIAP1-BUCR constructs
[6] = molecular target: T3, GFP-cIAP2 (Homo sapiens, UniProt Q13489); assay: GFP-cIAP2 degradation assay (loss of GFP signal, flow cytometry); format: cell-based; settings: read-out: ΔGFP-cIAP2 EC50, 24 h
T3 construct: expressed in transfected cells

[7] = molecular target: T4, ML-IAP BIR (Homo sapiens, UniProt Q96CA5); assay: Fluorescence polarization displacement assay, ML-IAP BIR
T4 sequence (Q96CA5 63-179 limits assumed): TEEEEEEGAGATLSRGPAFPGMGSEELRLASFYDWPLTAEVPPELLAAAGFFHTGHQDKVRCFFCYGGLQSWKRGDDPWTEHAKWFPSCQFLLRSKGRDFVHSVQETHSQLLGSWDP
Text: (§7) To establish protein-ligand binding affinity, we employed a fluorescence polarization assay. This assay monitored the displacement of an IAP binding motif (IBM)-containing peptide, Abu-RPFK(5-carboxyfluorescein)-NH2, from the Type III BIR domains of cIAP1, cIAP2, XIAP, and ML-IAP.

[8] = molecular target: cIAP2 BIR3 (Homo sapiens, UniProt Q13489); assay: Fluorescence polarization displacement assay, cIAP2 BIR3
Text: as §7

[9] = system: TNF-mediated NF-κB-luc
[10] = system: DAP-mediated NF-κB-luc (NOD1); assay: DAP-stimulated NF-kB luciferase reporter gene assay (NOD1 signaling) in HCT116 cells; format: cell-based, human
Experimental: (§1) To assay effects on XIAP E3 ubiquitin ligase activity manifested as NF-kB activation, we established both DAP- and MDP-stimulated luciferase reporter gene assays in which Smac mimetics are evaluated in cells at a single 10 μM drug concentration. Specifically, we developed stable cell lines with HCT116 cells (human colon cancer) that carry the NF-kB-luciferase reporter gene under the regulation of NF-kB promoter activation elements. The assay was carried out as follows: • 1. HCT116 (3-3) cells were cultured in white wall 96-wells plate (50,000 cells/50 μL/well) for overnight at 37° C. • 2. […] The luciferase activity in each well was measured by using Steady-Glo® Luciferase Assay System (Promega Corp.). 48 μL of luminescence detection reagent was added in each well, followed by brief agitation. The plate was left in dark for 15 minutes and then the luminescence activity was measured by using microplate reader Victor2 (PerkinElmer Life and Analytical Science, Shelton, Conn.). • 4. Calculation:
(§2) Luciferase activity in no ligand (i.e., […]) treatment wells=background (BG)
(§3) Luciferase activity in ligand only treatment wells=positive control (PC)
(§4) Luciferase activity in Smac mimetic (SM)+ligand treatment wells=Test • i) Test<PC
(§5) Inhibitory activity by SM(%)=100×[(PC−Test)/(PC−BG)] • ii) Test>PC
(§6) Activation by SM(%)=100×[(Test−BG)/(PC−BG)]

[11] = molecular target: XIAP BIR3 (Homo sapiens, UniProt P98170); assay: Fluorescence polarization displacement assay, XIAP BIR3
Text: as §7

[12] = system: MDP-mediated NF-κB-luc (NOD2); assay: MDP-stimulated NF-kB luciferase reporter gene assay (NOD2 signaling) in HCT116 cells; format: cell-based, human
Experimental: as §1, §2, §3, §4, §5, §6

[13] = molecular target: T3, GFP-cIAP2; assay: GFP-cIAP2 degradation assay (loss of GFP signal, flow cytometry); format: cell-based; settings: read-out: ΔGFP-cIAP2 EC50, 2 h; 2 h; A375 cells
Text: In this assay, treatment of GFP-cIAP-expressing melanoma cell line A375 with Smac mimetic, Compound 15, for two hours, results in degradation of cIAP-1 and cIAP-2 with concomitant loss of GFP-signal.

[14] = molecular target: cIAP1 BIR3 (Homo sapiens, UniProt Q13490); assay: Fluorescence polarization displacement assay, cIAP1 BIR3
Text: as §7

[15] = system: WT murine BMDMs; assay: IL-1β secretion from LPS-primed WT bone marrow-derived macrophages; format: cell-based; settings: 24 h
Text: Given the heightened activity of 2 versus 1 on cIAP2, we speculated that the improved tolerability of 1 might also be associated with reduced antagonism of XIAP functional activity in this system. We thus evaluated a selection of Smac-mimetics in both LPS-primed wild-type (WT) and XIAP knockout (Xiap^−/−) murine BMDMs to assess their capacity to induce the secretion of IL-1β following treatment with Smac-mimetic (FIG. 4).
WT and Xiap^−/− BMDMs were primed with LPS±the indicated concentration of Smac-mimetics for 24 h. WT BMDM results are presented as the mean±SEM (n=3 biological independent repeats). […] Total levels of IL-1β induced by Smac-mimetics in these assays varied but the trend was identical.

[16] = molecular target: T1, cIAP1-BUCR; assay: MALLS-SEC analysis of the oligomeric state of cIAP1-BUCR
Text: With 2 as a positive control, we used MALLS-SEC analysis to characterize the oligomeric state of cIAP1-BUCR in the presence of 1, the mono-D-Abu epimer (3), and the bis-D-Abu diastereomer (4).

[17] = 10 μM Smac mimetic, HCT116 cells

T1 sequence (Q13490 260-618 limits assumed): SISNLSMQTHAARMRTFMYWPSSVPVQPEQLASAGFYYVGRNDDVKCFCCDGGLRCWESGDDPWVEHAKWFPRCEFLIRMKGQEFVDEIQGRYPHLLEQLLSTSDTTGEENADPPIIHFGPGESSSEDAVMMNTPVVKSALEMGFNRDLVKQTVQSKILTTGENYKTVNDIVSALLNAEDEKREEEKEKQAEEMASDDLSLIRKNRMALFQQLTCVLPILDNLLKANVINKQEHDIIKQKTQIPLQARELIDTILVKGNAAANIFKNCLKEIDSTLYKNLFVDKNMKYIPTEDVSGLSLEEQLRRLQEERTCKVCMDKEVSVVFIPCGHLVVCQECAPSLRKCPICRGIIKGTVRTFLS
T2 sequence (Q13490 whole entry): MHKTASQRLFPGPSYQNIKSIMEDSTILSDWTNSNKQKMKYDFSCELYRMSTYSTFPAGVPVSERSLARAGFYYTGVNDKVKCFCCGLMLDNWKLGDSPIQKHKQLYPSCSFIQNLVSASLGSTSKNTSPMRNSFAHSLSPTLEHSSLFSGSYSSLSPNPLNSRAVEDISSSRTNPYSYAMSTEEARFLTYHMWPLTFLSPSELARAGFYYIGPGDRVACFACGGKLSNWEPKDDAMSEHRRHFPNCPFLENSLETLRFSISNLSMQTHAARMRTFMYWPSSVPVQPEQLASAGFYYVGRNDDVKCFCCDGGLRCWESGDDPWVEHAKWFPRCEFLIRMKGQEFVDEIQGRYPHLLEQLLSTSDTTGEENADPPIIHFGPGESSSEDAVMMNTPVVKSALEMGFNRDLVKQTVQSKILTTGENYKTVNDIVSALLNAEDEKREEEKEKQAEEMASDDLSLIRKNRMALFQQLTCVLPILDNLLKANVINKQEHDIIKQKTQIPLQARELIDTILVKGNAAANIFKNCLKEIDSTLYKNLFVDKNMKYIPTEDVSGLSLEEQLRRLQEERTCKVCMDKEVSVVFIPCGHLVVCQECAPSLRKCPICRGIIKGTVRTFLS
T3 sequence (Q13489 whole entry): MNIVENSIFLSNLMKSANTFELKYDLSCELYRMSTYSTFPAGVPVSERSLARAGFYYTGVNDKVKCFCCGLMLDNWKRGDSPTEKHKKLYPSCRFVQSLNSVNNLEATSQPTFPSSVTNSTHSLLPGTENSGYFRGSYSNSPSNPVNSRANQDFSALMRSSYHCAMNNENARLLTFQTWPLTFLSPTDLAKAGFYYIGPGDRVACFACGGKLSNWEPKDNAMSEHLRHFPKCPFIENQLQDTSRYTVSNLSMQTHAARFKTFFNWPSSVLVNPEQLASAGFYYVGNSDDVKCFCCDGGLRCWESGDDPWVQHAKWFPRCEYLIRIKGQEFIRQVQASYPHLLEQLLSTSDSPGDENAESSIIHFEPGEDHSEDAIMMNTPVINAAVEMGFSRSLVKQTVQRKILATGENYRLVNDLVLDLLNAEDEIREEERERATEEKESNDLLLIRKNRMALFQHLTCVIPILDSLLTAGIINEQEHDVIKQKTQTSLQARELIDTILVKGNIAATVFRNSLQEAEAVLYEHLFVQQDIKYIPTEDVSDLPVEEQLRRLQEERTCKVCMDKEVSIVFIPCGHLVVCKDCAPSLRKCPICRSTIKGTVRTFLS
cIAP2 BIR3, sequence (Q13489 238-349 limits assumed): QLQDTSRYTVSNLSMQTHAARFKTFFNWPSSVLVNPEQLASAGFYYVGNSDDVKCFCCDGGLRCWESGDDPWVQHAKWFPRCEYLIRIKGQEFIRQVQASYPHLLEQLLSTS
cIAP1-BUCR dimer, sequence (Q13490 260-618 limits assumed): as the sequence (Q13490 260-618 limits assumed) above
cIAP1-BUCR dimer, sequence (Q13490 260-618 limits assumed): as above
cIAP1 BIR3, sequence (Q13490 253-363 limits assumed): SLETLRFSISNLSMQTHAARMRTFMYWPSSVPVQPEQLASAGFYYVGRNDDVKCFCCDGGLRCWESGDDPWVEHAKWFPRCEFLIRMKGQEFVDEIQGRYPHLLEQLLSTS
XIAP BIR3, sequence (P98170 241-356 limits assumed): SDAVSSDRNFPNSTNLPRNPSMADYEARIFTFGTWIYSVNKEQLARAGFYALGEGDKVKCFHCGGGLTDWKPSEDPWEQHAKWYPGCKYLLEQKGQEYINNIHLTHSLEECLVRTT

## CN[C@@H](C)C(=O)N[C@H](C(=O)N1CCC[C@H]1Cc1c(-c2ccc(-c3c(C[C@@H]4CCCN4C(=O)[C@@H](NC(=O)[C@H](C)NC)C(C)(C)C)c4ccc(F)cc4n3CCO)cc2)n(CCO)c2cc(F)ccc12)C(C)(C)C [Compound A (2), reference compound]
[1]
  Ub transfer by cIAP1-BUCR (auto-ubiquitylation): increased
[2]; read-out: ΔGFP-cIAP1 EC50, 2 h, 2 h, A375 cells
  DC50: 13 ± 5 nM
[2]; read-out: ΔGFP-cIAP1 EC50, 24 h, 24 h
  DC50: 4 ± 2 nM
[3]
  IL-1β secretion in Xiap−/− BMDMs: induced IL-1β secretion
[4]
  tolerability: poorly tolerated
[5]
  co-IP of Flag-tagged cIAP1-BUCR with mbw-tagged cIAP1-BUCR: allowed the co-IP
[6]
  DC50: 27 ± 17 nM
[7]
  Ki: ~1 nM
[8]
  Ki: ~1 nM
[9]
  EC50: 8 ± 2 nM
[10]; [17]
  Inhibition of DAP-mediated NF-κB-luc, % Inhibition: 98 (+/−1) %
[10]; @ 2 h
  Inhibition of DAP-mediated NF-KB-luc @ 2 h, % Inhibition: 98 ± 1%
[11]
  Ki: ~1 nM
[12]; [17]
  Inhibition of MDP-mediated NF-κB-luc, % Inhibition: 99 (+/−1) %
[12]; @ 2 h
  Inhibition of MDP-mediated NF-KB-luc @ 2 h, % Inhibition: 99 ± 1%
[13]
  DC50: 43 ± 17 nM
[14]
  Ki: ~1 nM
[15]
  IL-1β secretion from LPS-primed WT BMDMs: capable of inducing IL-1β secretion
[16]
  cIAP1-BUCR dimerization: formation of the higher molecular weight cIAP1-BUCR dimer
